Patent publication US7217723B2, “Heterocyclic compound having oxime group” (Eisai Co., Ltd., priority 2004, dated 2007)

System: STAT6 activation
Assay: STAT6 activation inhibition test (IL-4-induced alkaline phosphatase STAT6 reporter gene assay)
Format: cell-based, human
Conditions: concentration giving 50% suppression of alkaline phosphatase activity induced by IL-4 (1 ng/mL), 16 hours, 293 cells stably expressing STAT6 gene and STAT6 reporter gene
Procedure: The inhibitory activity on STAT6 activation of the compound according to present invention was evaluated according to the following test.
1) Construction of the STAT6 Reporter Gene
The oligonucleotide of SEQ ID: 1 resuting from three STAT6 binding regions of the human immunoglobulin germline ε gene promoter linked togeter, and the complementary strand thereof were mixed, and after thermal denaturation and annealing, the 5′ and the 3′ ends were respectively cut with the restriction enzymes Kpn I (TaKaRa Shuzo Code No. 1068A) and Xba I (TaKaRa ShuzoCode No. 1093A), and the resulting fragment was cloned into the Kpn I/Xba I site of the pUG-BGH-PLAP vector (described in Molecular Pharmacology, 49: 860–873 1996). In addition, the TK promoter region of the herpesvirus for inducing general transcription factors was cloned into the Xba I/Hind III (TaKaRa ShuzoCode No. 1060A) site of the pUG-BGH-PLAP vector. Then, to collect a stable expression cell strain, the neomycin resistance gene, that is a PGK-neo expression cassette, was incorporated into the Sal I (TaKaRa Shuzo, Code No. 1080A) site of this vector. Cloning of the TK promoter and the PGK-neo expression cassette was carried out according to Molecular Pharmacology, 49: 860–873 1996.
2) Construction of the STAT6 Expression Vector
Using the oligonucleotide of SEQ ID: 2 containing the initiation codon of the STAT6 gene and the oligonucleotide of SEQ ID: 3 containing the stop codon, Total RNA was prepared from human peripheral blood cells with the RNeasy Mini kit (OIAGEN, Code No. 74104). Thereafter, a reverse transcription reaction was carried out with the Takara RNA LA PCR kit (TaKaRa Shuzo, Code No. RR012A) to prepare cDNA, and using the primers of SEQ ID: 2 and 3, a PCR reaction was carried out, to amplify the STAT6 gene.
PCR product was digested with EcoR I (TaKaRa Shuzo, Code No. 1040A) and Xho I (TaKaRa Shuzo, 1094A), thereafter, the digested fragment was isolated on an agarose gel. The isolated fragment was incorporated into the vector fragment derived from the EcoR I/Xho I digestion of the pcDNA3.1 (+) (invtrogen, Code No. U790-20) vector.
3) Transformation and Preparation of a Stable Expression Cell Strain
In a Falcon 6-well plate for tissue culture (Becton Dickinson, Code No. 35-3046), 3.0×10^5 of 293 cells derived from human embryo kidney (American Type Culture Collection) were distributed and cultured overnight. The STAT6 reporter gene (1.5 μg), the STAT6 gene (1.5 μg) that were prepared and lipofectamine (GIBCO BRL, Code No. 18324-012) (20 μL) were mixed in OPTI-MEM culture medium (GIBCO BRL, Code No. 31985-070) (0.3 mL), and allowed to stand at room temperature for 20 minutes. Thereafter, the OPTI-MEM culture medium (1.2 mL) was further added, OPTI-MEM culture medium not containing fetal calf serum was added to washed cells, which were cultured for 2 hours. A culture medium (1.5 mL) containing fetal calf serum was added, and the cells were cultured for 19 more hours. The culture was continued by exchanging the culture medium and adding Geneticin (SIGMA, Code No. G-5013) so as to obtain 1 mg/mL, and cells with drug tolerance were selected. The selected drug tolerant cells were suspended in a culture medium containing 1 mg/mL of Geneticin, and distributed in a 96-well microplate (Becton Dickinson, Code No. 35-3072) so as to obtain 0.5 cells/well to carrry out cloning, and the clones expressing alkaline phosphatase in response to IL-4 were collected.
4) STAT6 Activation Inhibition Test
Cells stably expressing the STAT6 gene and the STAT6 reporter gene, and expressing alkaline phosphatase in response to IL-4 were distributed in a 96-well microplate (Becton Dickinson, Code No. 35-3072) so as to obtain 5000 cells/180 μL/well, and cultured overnight. […]

SMILES | IC50 (Homo sapiens, HEK293) [nM] | IC50 [nM]
CN(C[C@H](O)c1ccc(F)cc1)S(=O)(=O)c1csc2c1CCC/C2=N/O [Example 14, (7Z)-N-[(2R)-2-(4-Fluorophenyl)-2-hydroxyethyl]-7-(hydroxyimino)-N-methyl-4,5,6,7-tetrahydro-1-benzothiophene-3-sulfonamide] | 30 | 
CN(CCc1cccnc1)S(=O)(=O)c1csc2c1CCC/C2=N/O [Example 7, (7Z)-7-Hydroxyimino-4,5,6,7-tetrahydro-benzo[b]thiophene-3-sulfonic acid methyl-(2-pyridine-3-yl-ethyl)-amide] | 4.8 | 
CN(CC(O)c1ccc(F)cc1)S(=O)(=O)c1csc2c1CCC/C2=N/O (stereo not drawn) [Example 1, (7Z)-7-Hydroxyimino-4,5,6,7-tetrahydro-benzo[b]thiophene-3-sulfonic acid[2-(4-fluorophenyl)-2-hydroxyethyl]-methyl-amide] |  | 1.13
CC(C)C(=NO)c1cc(S(=O)(=O)N(C)CCc2ccc(F)cc2)cs1 [Example 47, 5-(1-Hydroxyimino-2-methylpropyl)thiophene-3-sulfonic acid [2-(4-fluorophenyl)-ethyl]-methyl-amide] | 12 | 
C/C(=N/O)c1ccc(S(=O)(=O)N(C)CCc2ccc(F)cc2)s1 [Example 37] |  | 30
CC(C)C(=NO)c1cc(S(=O)(=O)N(C)CC(O)c2ccc(F)cc2)c(N)s1 (stereo not drawn) [Example 64, 2-Amino-5-(1-hydroxyimino-2-methylpropyl)thiophene-3-sulfonic acid[2-(4-fluorophenyl)-2-hydroxyethyl]-methyl-amide] |  | 40
CC1CCc2c(S(=O)(=O)N(C)CCc3ccc(F)cc3)csc2/C1=N\O (stereo not drawn) [Example 31, (7Z)-7-Hydroxyimino-6-methyl-4,5,6,7-tetrahydrobenzo[b]-thiophene-3-sulfonic acid[(2-(4-fluorophenyl)ethyl)]-methyl-amide] |  | 4.3
CC(C)/C(=N/O)c1cc(S(=O)(=O)N(C)CCc2ccc(F)cc2)c(N)s1 [Example 63, 2-Amino-5-[(1Z)-hydroxyimino-2-methylpropyl]thiophene-3-sulfonic acid[2-(4-fluorophenyl)ethyl]-methyl-amide] |  | 40
CN(CC(NC(N)=O)c1ccc(F)cc1)S(=O)(=O)c1csc2c1CCCC2=NO (stereo not drawn) [Example 25, 7-Hydroxyimino-4,5,6,7-tetrahydrobenzo[b]thiophene-3-sulfonic acid [(2-(4-fluorophenyl)-2-ureideethyl)]-methyl-amide] |  | 13
